Values after ≈ are worked out from the molar mass of the structure shown.
Legend:
Assay in all cases: Minimum inhibitory concentration, broth microdilution
Assay type in all cases: cell-based
[1] = test system: Escherichia coli ATCC 2469
From the text: (§1) Bacterial cell lines and reagents. Escherichia coli ATCC 2452 (NDM-1, isolated in Pakistan) was New Delhi metallo-beta-lactamase (NDM-1) positive, blaNDM positive by PCR, and carbepenem-resistant (Imipenem and Ertapenem). Escherichia coli ATCC 2469 (1001728, isolated from human urine) was New Delhi metallo-beta-lactamase (NDM-1) positive, blaKPC negative and blaNDM positive by PCR, and Carbepenem-resistant (Imipenem and Ertapenem). Klebsiella pneumoniae (NR-41920, isolated in 2008 from human blood culture in Boston, Massachusetts, USA) was Carbapenem-resistant strain, blaKPC-3 positive by PCR, and resistant to amikacin, ampicillin/sulbactam, cefazolin, cefepime, ceftazidime, ceftriaxone, cefuroxime, ciprofloxacin, gentamicin, meropenem, piperacillin/tazobactam, tobramicin and trimethoprim/sulfamethoxazole. Pseudomonas aeruginosa (NR-50573, isolated in early 1970s from the blood of a burn patient at Mercy Hospital in Pittsburgh, Pennsylvania, USA) was resistant to rifampicin and susceptible to meropenem, ofloxacin, ceftazidime, amikacin, and tobramycin. 0.5 McFarland standard was purchased from ThermoFisher scientific (Waltham, MA, USA). Mueller-Hinton broth and tryptone soy agar plates were purchased from Becton, Dickinson and company (Franklin Lakes, New Jersey, USA).
(§2) Antimicrobial activities The minimum inhibitory concentrations (MICs) of the control antibiotics (gentamicin and imipenem), PMB, D-TZP and TZP against Escherichia coli, Klebsiella pneumoniae and Pseudomonas aeruginosa strains were determined by the broth microdilution method, according to guidelines outlined by the Clinical and Laboratory Standards Institute (CLSI)^18. The bacterial stains were grown aerobically overnight on tryptone soy agar plates at 37° C. Afterwards, a bacterial solution equivalent to 0.5 McFarland standard was prepared and diluted in cation-adjusted Mueller-Hinton broth (CAMHB) to achieve a bacterial concentration of ˜5×10^5 CFU/mL. The treatments were added in the first row of the 96-well plates and serially diluted with media containing bacteria. Plates were incubated aerobically at 37° C. for 16-18 hours.

[2] = test system: Escherichia coli ATCC 2452
From the text: as §1, §2

[3] = test system: Pseudomonas aeruginosa NR-50573
From the text: as §1, §2

[4] = test system: Klebsiella pneumoniae NR-41920
From the text: as §1, §2

Compound | MIC ([1]; ATCC2469) [mg/L] | MIC ([2]; ATCC2452) [mg/L] | MIC ([3]; NR50573) [mg/L] | MIC ([4]; NR41920) [mg/L] | Minimum inhibitory concentration (MIC) [1] [mg/L] | Minimum inhibitory concentration (MIC) [2] [mg/L] | Minimum inhibitory concentration (MIC) [3] [mg/L] | Minimum inhibitory concentration (MIC) [4] [mg/L]
C[C@@H](O)[C@H]1C(=O)N2C(C(=O)O)=C(SCCN=CN)C[C@H]12 [Imipenem, imipenem] | 16 (≈ 53.4 µM) | 16 (≈ 53.4 µM) | 1 (≈ 3.34 µM) | 8 (≈ 26.7 µM) | – | – | – | –
gentamicin | – | – | – | – | >64 | >64 | 1 | 64
